Assays:
[1] = test system: MDA-MB-436 Nir^R (BRCA reversion) TNBC cell line; experiment: In vitro activity (IC50) in niraparib-resistant MDA-MB-436; type: cell-based; settings: Homo sapiens
Description: (§1) Cells with BRCA reversion mutations may be considered HRD+due to genome instability (such as TAI, LST, LOH). BRCA reversion mutation is an established mechanism of resistance to both platinum-based chemotherapeutic drugs and PARP inhibitors. In vivo exploration of WEE1 inhibitors (azenosertib, adavosertib) and PARP inhibitors (niraparib, olaparib) was evaluated.
(§2) MDA-MB-436 PARP inhibitor-resistant lines were generated by long-term in vitro treatment with a PARP inhibitor that is olaparib (Ola^R) or niraparib (Nir^R).

[2] = test system: uterine serous carcinoma (USC) or high-grade serous ovarian cancer (HGSOC); experiment: Azenosertib in subjects with USC or HGSOC grouped by HRRm status: tumor response and progression free survival; type: in vivo, human; settings: for tumor size change, median: USC population, azenosertib 300 mg or more; for progression free survival: subjects treated with 300+mg azenosertib
Description: Subjects with uterine serous carcinoma (USC) or high-grade serous ovarian cancer (HGSOC) were treated with azenosertib and grouped by azenosertib dose of lower than 300 mg (LT300) or at or greater than 300 mg azenosertib (300+mg). […] Total subjects in parenthesis includes all subjects in the study including subjects receiving LT300.
Subjects selected in Table 1 were evaluated for tumor response when treated with doses of 300 mg or more of azenosertib or with lower than 300 mg of azenosertib. In the USC population treated with azenosertib of 300 mg or more (300+), HRRm positivity was associated with better tumor response (p=0.01). (FIG. 1B and FIG. 1C). The HRRm median was −33% and HRR wt median was −5%. […] HRRm subject population was associated with 8.3 months of progression free survival, compared to HRR wt subject population with 4.2 months progression free survival. (FIG. 1D). HRRm status was associated with better progression free survival in subjects treated with at least 300 mg azenosertib, supporting an effective dose of 300 mg or more in HRD subjects.

[3] = test system: SUM149PT TNBC xenograft (BRCA1 splice isoform Δ11q); experiment: SUM149PT TNBC xenograft tumor growth inhibition; type: in vivo, mice
Description: SUM149PT is a TNBC xenograft model harboring a BRCA1 splice isoform (Δ11q) that produces a truncated, partially functional protein which thereby promotes PARP inhibitor resistance. Azenosertib monotherapy and its combination with olaparib or AZD5305 was evaluated in the SUM149PT model in vivo in mice (FIGS. 10A-10B), and Table 12 summarizes the groups and treatments. Single agent treatment with olaparib at 100 mg/kg QD (FIG. 10A) or with the PARP1 selective inhibitor, AZD5305, at 0.1 or 1 mg/kg QD (FIG. 10B) confirmed SUM149PT resistance to PARP inhibitors.

[4] = test system: MDA-MB-436 Ola^R (BRCA reversion) TNBC cell line; experiment: In vitro activity (IC50) in olaparib-resistant MDA-MB-436; type: cell-based; settings: Homo sapiens; MDA-MB-436 Ola^R; read-out: In vitro activity (IC50) Olaparib^R (BRCA reversion)
Description: as §1, §2

[5] = Body weight loss and clinical observations in ovarian PDX study; type: in vivo
Description: Relative Body Weight (RBW), individual body weight and mean body weight loss percent were calculated for each measurement by dividing the body weight by the body weight at the start of treatment as described in Example 3.

[6] = test system: patient-derived ovarian xenograft (PDX) models (OVA2-BUR, CTG-0703, CTG-2213); experiment: Anti-tumor efficacy in ovarian PDX models; type: in vivo; settings: BRCA1 pathogenic mutant ovarian PDX vs BRCA1 WT / benign mutant; azenosertib 60 mg/kg, niraparib 35 mg/kg
Description: The OVA2-BUR model has an HRD negative/BRCA1 WT phenotype. Tumor growth inhibition was also measured using BRCA1^Glu1607Ter (pathogenic) mutant and BRCA1^Pro1099Leu (Benign) mutant PDX models.

[7] = test system: HBCx-9, HBCx-10 and HBCx-17 triple-negative breast cancer (TNBC) PDX models; experiment: Anti-tumor efficacy in TNBC patient-derived xenograft models; type: in vivo, mice; settings: HBCx-10 and HBCx-17 (HRD+) vs HBCx-9 (HRD-); azenosertib 60 mg/kg, niraparib 35 mg/kg
Text: Treatments were initiated 28 days post implantation of the tumor cells. The study period ended 28 days after the start of treatment. [table]

[8] = test system: HGSOC with HRD+ status (BRCA1m); experiment: Human subject with HRD+ platinum-resistant, PARP inhibitor-resistant ovarian cancer treated with azenosertib; type: in vivo; settings: one subject
Description: A subject with HGSOC selected to have HRD+ status (e.g., BRCA1m) confirmed by qualitative next-generation sequencing based in vitro diagnostic test (FoundationOne®CDx) was administered azenosertib in accordance with an intermittent dosing schedule of at least 400 mg azenosertib once a day for five consecutive days, followed by two off days. The subject received azenosertib for five months. The subject is a person who received 7 prior lines of therapy: (1) carboplatin/paclitaxel/bevacizumab/olaparib (PD); (2) Pembrolizumab (PD); (3) NaPi2b targeting-ADC (XMT-1536) (PD); (4) carboplatin/gemcitabine/bevacizumab (PD); (5) Pegylated doxorubicin (PD); (6) Topotecan (PD); (7) PABP-1 RNP (ATRC-101) (PD).

[9] = test system: parental MDA-MB-436 TNBC cell line; experiment: In vitro activity (IC50) in parental MDA-MB-436; type: cell-based; settings: Homo sapiens; parental MDA-MB-436; read-out: In vitro activity (IC50) Wild Type
Description: as §1, §2

[10] = test system: HRD+ cells UWB1289, HCC1937, COV362, HCC1569, HCC1395; experiment: In vitro cell viability (CellTiter-Glo) in a panel of HRD+ cells; type: cell-based; settings: HRD+ cells both PARP inhibitor-sensitive and PARP inhibitor-resistant, 5 cell doublings
Description: Azenosertib, olaparib and AZD5305 (PARP1-selective inhibitor) were individually tested in vitro in a panel of HRD+ cells as indicated in Table 10. Briefly, cells were seeded in their recommended media at a density of 1,000 cells per well into 96 well plates. After 24 hr, drug treatment was performed and cells were incubated in a 37° C. for 5 cell doublings. Cell viability was measured using CellTiter-Glo (CTG) (Promega) according to the manufacturer's recommendations. Percent viability was calculated as percentage of cell viability relative to DMSO-only vehicle control. Dose-response curves were fit with Graphpad Prism 9 to determine IC50 values.

[11] = azenosertib 60 mg/kg and/or niraparib 35 mg/kg p.o., (5 days on, 2 days off) × 4

SMILES: C=CCn1c(=O)c2cnc(Nc3ccc(N4CCN(C)CC4)cc3)nc2n1-c1ccc2c(n1)[C@@](O)(CC)CC2 [Azenosertib, azenosertib]
- IC50 [1]: 0.185 µM
- tumor size change, median ([2]; HRR wt): −5%
- tumor size change, median ([2]; HRRm): −33%
- progression free survival ([2]; HRR wt): 4.2 months
- progression free survival ([2]; HRRm): 8.3 months
- TGI ([3]; monotherapy azenosertib 60 mg/kg QD 5:2): 82%
- TGI ([3]; monotherapy azenosertib 80 mg/kg QD 5:2): 91%
- TGI ([3]; monotherapy azenosertib 100 mg/kg QD 5:2): 101%
- IC50 [4]: 0.174 µM
- Max. individual BWL [5, 11]: 7.6%
- Max. mean BWL [5, 11]: 0.7%
- tolerability (body weight data and clinical observations) ([5]; azenosertib at 60 mg/kg, niraparib at 35 mg/kg, single agents or in combination): well tolerated
- tumor growth inhibition in HRD+ model compared to BRCA1 WT or benign BRCA1 mutant models [6]: increased tumor growth inhibition
- tumor growth inhibition in HRD+ models compared to the HRD- model [7]: increased tumor growth inhibition
- target lesion on scan ([8]; after treatment with azenosertib): no longer visualized
- cPR (confirmed partial response) ([8]; at least 400 mg azenosertib once a day, five days on, two off, five months, 7 prior lines): −48%
- IC50 [9]: 0.282 µM
- tumor cell growth (dose response curves) [10]: reduces tumor cell growth

Source: US20260083742A1, “HOMOLOGOUS RECOMBINATION REPAIR DEFICIENCY (HRD) AS A PREDICTIVE BIOMARKER FOR TREATING CANCER WITH WEE1 INHIBITORS” (Zeno Management, Inc., priority 2023, published 2026)
